US20040048834A1, “Antitumoral compounds” (priority 2000, published 2004)
Where a name gives a salt, the structure may show the parent alone. Read-outs that look alike come from different tables or passages of the source.

Key:
Format in all cases: cell-based
P388 = assay: Cytotoxicity of spisulosine analogs, P388 (after Berjeron et al); conditions: methodology after Berjeron et al, NA=not active, read-out: Cytotoxicity IC50 P388
HT29 = assay: Cytotoxicity of spisulosine analogs, HT29 (after Berjeron et al); conditions: methodology after Berjeron et al, NA=not active, read-out: Cytotoxicity IC50 HT29
A549 = assay: Cytotoxicity of spisulosine analogs, A549 (after Berjeron et al); conditions: methodology after Berjeron et al, NA=not active, read-out: Cytotoxicity IC50 A549
MEL28 = assay: Cytotoxicity of spisulosine analogs, MEL28 (after Berjeron et al); conditions: methodology after Berjeron et al, NA=not active, read-out: Cytotoxicity IC50 MEL28
DU145 = assay: Cytotoxicity of spisulosine analogs, DU145 (after Berjeron et al); conditions: methodology after Berjeron et al, NA=not active, read-out: Cytotoxicity IC50 DU145

CCCCCCCCCCCCCCC[C@H](Cl)[C@H](C)N [(2S,3S)-2-Amino-3-chloro-octadecane]
IC50 (P388; Mus musculus, P388, P388): 0.329 µM
IC50 (HT29; Homo sapiens, HT-29, HT29): 0.329 µM
IC50 (A549; Homo sapiens, A549, A549): 0.329 µM
IC50 (MEL28; Homo sapiens, SK-MEL-28, MEL28): 0.329 µM
IC50 (DU145; Homo sapiens, DU-145, DU145): 0.329 µM

CCCCCCCCCCCCCCC[C@H](O)[C@@H](C)N [(2R,3S)-2-Amino-3-octadecanol]
IC50 (P388; Mus musculus, P388, P388): 0.35 µM
IC50 (HT29; Homo sapiens, HT-29, HT29): 0.35 µM
IC50 (A549; Homo sapiens, A549, A549): 0.35 µM
IC50 (MEL28; Homo sapiens, SK-MEL-28, MEL28): 0.35 µM
IC50 (DU145; Homo sapiens, DU-145, DU145): 0.35 µM

CCCCCCCCCCCCCCC[C@@H](O)[C@@H](N)Cc1ccc(O)cc1 [drawing 70, (2S,3R)-2-Amino-1-(4′-hydroxyphenyl)-3-octadecanol hydrochloride]
IC50 (HT29; HT29, hydrochloride): 0.242 µM
IC50 (A549; A549, hydrochloride): 0.242 µM

CCCCCCCCCCCCCC[C@@H](O)[C@H](C)N [drawing 45, (2S,3R)-2-Amino-3-heptadecanol hydrochloride]
IC50 (HT29; HT29, hydrochloride): 0.0325 µM
IC50 (A549; A549, hydrochloride): 0.0325 µM

CCCCCCCCCCCCCCC[C@H](O)[C@H](C)N [(2S,3S)-2-Amino-3-octadecanol]
IC50 (P388; Mus musculus, P388, P388): 0.35 µM
IC50 (HT29; Homo sapiens, HT-29, HT29): 0.35 µM
IC50 (A549; Homo sapiens, A549, A549): 0.35 µM
IC50 (MEL28; Homo sapiens, SK-MEL-28, MEL28): 0.35 µM
IC50 (DU145; Homo sapiens, DU-145, DU145): 0.35 µM

CCCCCCCCCCCCCCC[C@@H](O)[C@H](C)N [drawing 47, (2S,3R)-2-Amino-3-octadecanol hydrochloride]
IC50 (P388; P388, hydrochloride): 0.0311 µM
IC50 (HT29; HT29, hydrochloride): 0.0155 µM
IC50 (A549; A549, hydrochloride): 0.0311 µM
IC50 (MEL28; MEL28, hydrochloride): 0.311 µM
IC50 (DU145; DU145, hydrochloride): 0.0311 µM

CCCCCCCCCCCCCCC[C@@H](O)[C@@H](N)CCCN [drawing 72, (4S,5R)-1,4-Diamino-5-eicosanol dihydrochloride]
IC50 (HT29; HT29, dihydrochloride): 1.24 µM
IC50 (A549; A549, dihydrochloride): 1.24 µM

CCCCCCCCCCCCCCCCC[C@@H](O)[C@@H](N)CC [drawing 63, (3S,4R)-3-Amino-4-heneicosanol hydrochloride]
IC50 (HT29; HT29, hydrochloride): 0.0275 µM
IC50 (A549; A549, hydrochloride): 0.0275 µM

CCCCCCCCCCCCCCC[C@@H](O)[C@H](C)N [drawing 46, Bis-((2S,3R)-2-ammonium-3-octadecanol) L-tartrate]
IC50 (P388; Mus musculus, P388, P388): 0.0277 µM
IC50 (HT29; Homo sapiens, HT-29, HT29): 0.0277 µM
IC50 (A549; Homo sapiens, A549, A549): 0.0277 µM
IC50 (MEL28; MEL28): 0.0277 µM
IC50 (DU145; Homo sapiens, DU-145, DU145): 0.0277 µM

CCCCCCCCCCCCCCCCC[C@@H](O)[C@@H](N)CC [drawing 62, (3S,4R)-3-Amino-4-heneicosanol]
IC50 (HT29; Homo sapiens, HT-29, HT29): 0.0305 µM
IC50 (A549; Homo sapiens, A549, A549): 0.0305 µM

CCCCCCCCCCCCCCCCC[C@@H](O)[C@H](C)N [drawing 38, (2S,3R)-2-Amino-3-eicosanol]
IC50 (P388; Mus musculus, P388, P388): 0.0319 µM
IC50 (HT29; HT29): 0.0319 µM
IC50 (A549; A549): 0.0319 µM
IC50 (MEL28; Homo sapiens, SK-MEL-28, MEL28): 0.319 µM
IC50 (DU145; Homo sapiens, DU-145, DU145): 0.0319 µM

CCCCCCCCCCCCCC[C@@H](O)[C@H](C)N [drawing 101]
IC50 (P388; P388): 0.163 µM
IC50 (HT29; HT29): 0.163 µM
IC50 (A549; A549): 0.163 µM
IC50 (MEL28; MEL28): 0.327 µM
IC50 (DU145; DU145): 0.163 µM

CCCCCCCCCCCCCCC[C@H](N)[C@H](C)N
IC50 (HT29; HT29): 0.28 µM
IC50 (A549; A549): 0.28 µM

CCCCCCCCCCCCCCCC[C@@H](O)[C@H](C)N [drawing 49, (2S,3R)-2-Amino-3-nonadecanol hydrochloride]
IC50 (HT29; Homo sapiens, HT-29, HT29): 0.0298 µM
IC50 (A549; Homo sapiens, A549, A549): 0.0298 µM

CCCCCCCCCCCCCCCCCC[C@@H](O)[C@H](C)N [drawing 53, (2S,3R)-2-Amino-3-heneicosanol hydrochloride]
IC50 (HT29; HT29, hydrochloride): 0.0275 µM
IC50 (A549; A549, hydrochloride): 0.0275 µM

CCCCCCCCCCCCCCC[C@@H](OC)[C@H](C)N [(2S,3R)-2-Amino-3-(methoxy)-octadecane]
IC50 (HT29; Homo sapiens, HT-29, HT29): 1.67 µM
IC50 (A549; Homo sapiens, A549, A549): 1.67 µM

CCCCCCCCCCCCCCC[C@@H](O)[C@H](C)NS(C)(=O)=O
IC50 (HT29; HT29): 0.0275 µM
IC50 (A549; A549): 0.0275 µM

CCCCCCCCCCCCCCCCCCCC[C@@H](O)[C@H](C)N [(2S,3R)-2-Amino-3-tricosanol]
IC50 (P388; Mus musculus, P388, P388): 1.41 µM
IC50 (HT29; Homo sapiens, HT-29, HT29): 2.81 µM
IC50 (DU145; Homo sapiens, DU-145, DU145): 2.81 µM

CCCCCCCCCCCCCCC[C@@H](O)[C@@H](N)Cc1ccc(O)cc1 [drawing 69, (2S,3R)-2-Amino-1-(4′-hydroxyphenyl)-3-octadecanol]
IC50 (HT29; HT29): 1.32 µM
IC50 (A549; A549): 1.32 µM

CCCCCCCCCCCCCCC[C@@H](O)[C@@H](N)CC [drawing 59, (3S,4R)-3-Amino-4-nonadecanol hydrochloride]
IC50 (HT29; HT29, hydrochloride): 0.00298 µM
IC50 (A549; A549, hydrochloride): 0.00298 µM

CCCCCCCCCCCCCCC[C@@H](O)[C@@H](N)CCC [drawing 64, (4S,5R)-4-Amino-5-eicosanol]
IC50 (HT29; HT29): 0.159 µM
IC50 (A549; A549): 0.159 µM

CCCCCCCCCCCCCC[C@@H](O)[C@@H](N)CC [drawing 57, (3s,4R)-3-Amino-4-octadecanol hydrocloride]
IC50 (HT29; HT29): 0.0155 µM
IC50 (A549; A549): 0.0155 µM

CCCCCCCCCCCCCCC[C@@H](O)[C@@H](N)CCCN [drawing 71, (4S,5R)-1,4-Diamino-5-eicosanol]
IC50 (HT29; Homo sapiens, HT-29, HT29): 1.52 µM
IC50 (A549; Homo sapiens, A549, A549): 1.52 µM
